# From patent US7238697B2, “Pyridylpyrimidines for use as pesticides” (Bayer CropScience AG, priority 2001, dated 2007)
# Assay: log P determination by HPLC (reversed-phase C18), EEC Directive 79/831 Annex V.A8
# Format: physicochemical
# Conditions: pH 2.3; HPLC, reversed-phase C 18, 43° C., 0.1% aqueous phosphoric acid/acetonitrile; read-out: log P (pH 2.3)
# Procedure: The stated log P values were determined in accordance with EEC Directive 79/831 Annex V.A8 by HPLC (High Performance Liquid Chromatography) using a reversed-phase column, (C 18). Temperature: 43° C. Mobile phases for the determination in the acidic range: 0.1% aqueous phosphoric acid, acetonitrile; linear gradient from 10% acetonitrile to 90% acetonitrile. Calibration was carried out using unbranched alkan-2-ones (having 3 to 16 carbon atoms) with known logP values (determination of the logP values by the retention times using linear interpolation between two successive alkanones).
row,SMILES,chromatographic logP
1,"CCOC(=O)NCc1nccc(-c2ccccn2)n1 [Example 8, ethyl [4-(2-pyridinyl)-2-pyrimidinyl]methylcarbamate]",1.14

# Same assay, conditions: reversed-phase C18 HPLC column; pH 2.3; HPLC, reversed-phase C 18, 43° C., 0.1% aqueous phosphoric acid/acetonitrile; read-out: log P (pH 2.3)
row,SMILES,chromatographic logP
1,CS(=O)(=O)c1nccc(-c2ccccn2)n1 [2-(methylsulphonyl)-4-(2-pyridinyl)pyrimidine],0.99
2,CSc1nccc(-c2ccccn2)n1 [2-(methylthio)-4-(2-pyridinyl)pyrimidine],1.93
3,"CC(C)OC(=O)CSc1nccc(-c2ccccn2)n1 [Example 1, isopropyl {[4-(2-pyridinyl)-2-pyrimidinyl]thio}-acetate]",2.56
4,"CCOC(=O)C(C)Sc1nccc(-c2ccccn2)n1 (stereo not shown) [Example 2, ethyl-2-{[4-(2-pyridinyl)-2-pyrimidinyl]thio}-propanoate]",2.74
5,"CN(C(=O)CSc1nccc(-c2ccccn2)n1)c1ccc(Cl)cc1 [Example 3, N-(4-chlorophenyl)-N-methyl-2-{[4-(2-pyridinyl)-2-pyrimidinyl]thio}acetamide]",2.73
6,"CCOC(=O)CSc1nc(C)cc(-c2ccccn2)n1 [Example 4, ethyl {[4-methyl-6-(2-pyridinyl)-2-pyrimidinyl]thio}acetate]",2.45
7,"CCOC(=O)CNc1nccc(-c2ccccn2)n1 [Example 5, ethyl N-(4-(2-pyridinyl)-2-pyrimidinyl]glycinate]",1.14
8,"CCOC(=O)CN(C)c1nccc(-c2ccccn2)n1 [Example 6, ethyl N-methyl-N-[4-(2-pyridinyl)-2-pyrimidinyl]glycinate]",1.66
9,"CCOC(=O)COc1nccc(-c2ccccn2)n1 [Example 7, ethyl {[4-(2-pyridinyl)-2-pyrimidinyl]oxy}acetate]",1.73
10,COC(=O)CSc1nccc(-c2ccccn2)n1 [Example 10],1.81
11,O=C(O)CSc1nccc(-c2ccccn2)n1 [Example 11],1.14
12,COC(=O)CS(=O)(=O)c1nccc(-c2ccccn2)n1 [Example 12],1.37
13,CCOC(=O)CSc1nccc(-c2ccccn2)n1 [Example 13],2.17
14,COC(=O)CC(=O)CSc1nccc(-c2ccccn2)n1 [Example 14],1.76
15,O=C(CSc1nccc(-c2ccccn2)n1)Oc1ccccc1 [Example 15],2.88
16,CCCOC(=O)CSc1nccc(-c2ccccn2)n1 [Example 16],2.76
17,C=COC(=O)CSc1nccc(-c2ccccn2)n1 [Example 17],2.37
18,C=CCOC(=O)CSc1nccc(-c2ccccn2)n1 [Example 18],2.4
19,O=C(CSc1nccc(-c2ccccn2)n1)OCc1ccccc1 [Example 19],2.99
20,COCCOC(=O)CSc1nccc(-c2ccccn2)n1 [Example 20],1.97
21,O=C(CSc1nccc(-c2ccccn2)n1)OC1CCCCC1 [Example 21],3.53

row,SMILES,chromatographic logP
1,CCOC(=O)C(C)OC(=O)CSc1nccc(-c2ccccn2)n1 (stereo not shown) [Example 22],2.58
2,COC(=O)C(Sc1nccc(-c2ccccn2)n1)C(C)=O (stereo not shown) [Example 23],2.34
3,COC(=O)C(Sc1nccc(-c2ccccn2)n1)C(=O)OC [Example 24],2.16
4,CCC(Sc1nccc(-c2ccccn2)n1)C(=O)OC (stereo not shown) [Example 25],2.68
5,COC(=O)C(Sc1nccc(-c2ccccn2)n1)c1ccccc1 (stereo not shown) [Example 26],3.5
6,COC(=O)C(Cc1cccc(Cl)c1)Sc1nccc(-c2ccccn2)n1 (stereo not shown) [Example 27],3.84
7,CCN(CC)C(=O)CSc1nccc(-c2ccccn2)n1 [Example 28],1.8
8,NC(=O)CSc1nccc(-c2ccccn2)n1 [Example 29],0.69
9,CCOC(=O)/C=C/CSc1nccc(-c2ccccn2)n1 [Example 30],2.92
10,COC(=O)/C=C(/CSc1nccc(-c2ccccn2)n1)OC [Example 31],2.7
11,CC(C)CNC(=O)CSc1nccc(-c2ccccn2)n1 [Example 32],1.81
12,O=C(CSc1nccc(-c2ccccn2)n1)Nc1ccc(Cl)cc1 [Example 33],2.58
13,COC(=O)/C(O)=C\c1nccc(-c2ccccn2)n1 [Example 34],1.89
14,CC(C)(C)OC(=O)CSc1nccc(-c2ccccn2)n1 [Example 35],2.96
15,O=C(CSc1nccc(-c2ccccn2)n1)NO [Example 36],0.55
16,O=C(CSc1nccc(-c2ccccn2)n1)NCc1ccc(SC(F)(F)F)cc1 [Example 37],2.93
17,O=C(CSc1nccc(-c2ccccn2)n1)NCCc1ccc(OC(F)(F)F)cc1 [Example 38],2.96
18,O=C(CSc1nccc(-c2ccccn2)n1)NCc1ccccc1OC(F)(F)F [Example 39],2.72
19,O=C(CSc1nccc(-c2ccccn2)n1)NCc1ccc(OC(F)(F)F)cc1 [Example 40],2.76
20,O=C(CSc1nccc(-c2ccccn2)n1)NCCc1ccc(Cl)cc1Cl [Example 41],2.83
21,O=C(CSc1nccc(-c2ccccn2)n1)NCCc1cccc(C(F)(F)F)c1 [Example 42],2.82

row,SMILES,chromatographic logP
1,CC(NC(=O)CSc1nccc(-c2ccccn2)n1)c1ccc(C(C)(C)C)cc1 (stereo not shown) [Example 43],3.4
2,O=C(CSc1nccc(-c2ccccn2)n1)NCc1ccc(Cl)c(Cl)c1 [Example 44],2.64
3,O=C(CSc1nccc(-c2ccccn2)n1)NCc1ccc(Cl)cc1Cl [Example 45],2.69
4,O=C(CSc1nccc(-c2ccccn2)n1)NCc1cccc(C(F)(F)F)c1 [Example 46],2.62
5,O=C(CSc1nccc(-c2ccccn2)n1)NCc1ccc(C(F)(F)F)cc1 [Example 47],2.64
6,O=C(CSc1nccc(-c2ccccn2)n1)NCc1ccc(F)c(Cl)c1 [Example 48],2.42
7,CN(Cc1ccc(Cl)nc1)C(=O)CSc1nccc(-c2ccccn2)n1 [Example 49],2.01
8,CC(NC(=O)CSc1nccc(-c2ccccn2)n1)c1ccc(Cl)cc1 (stereo not shown) [Example 50],2.58
9,O=C(CSc1nccc(-c2ccccn2)n1)NCCc1ccc(Cl)cc1 [Example 51],2.58
10,O=C(CSc1nccc(-c2ccccn2)n1)NCc1ccc2c(c1)OCO2 [Example 52],1.94
11,O=C(CSc1nccc(-c2ccccn2)n1)NCc1ccc(Cl)nc1 [Example 53],1.71
12,O=C(CSc1nccc(-c2ccccn2)n1)NCc1ccc(Cl)cc1 [Example 54],2.38
13,COc1ccc(CNC(=O)CSc2nccc(-c3ccccn3)n2)cc1 [Example 55],2
14,Cc1ccc(CCNC(=O)CSc2nccc(-c3ccccn3)n2)cc1 [Example 56],2.56
15,Cc1ccc(C(C)NC(=O)CSc2nccc(-c3ccccn3)n2)cc1 (stereo not shown) [Example 57],2.48
16,CC(C)N1CCN(C(=O)CSc2nccc(-c3ccccn3)n2)CC1 [Example 58],0.95
17,Cc1cccc(CNC(=O)CSc2nccc(-c3ccccn3)n2)c1 [Example 59],2.29
18,CC1CN(C(=O)CSc2nccc(-c3ccccn3)n2)CC(C)O1 (stereo not shown) [Example 60],1.94
19,CN(C(=O)CSc1nccc(-c2ccccn2)n1)C1CCCCC1 [Example 61],2.67
20,O=C(CSc1nccc(-c2ccccn2)n1)NCc1ccccn1 [Example 62],1.14
21,O=C(CSc1nccc(-c2ccccn2)n1)NC1CCCCC1 [Example 63],2.31

row,SMILES,chromatographic logP
1,O=C(CSc1nccc(-c2ccccn2)n1)NCc1ccco1 [Example 64],1.82
2,O=C(CSc1nccc(-c2ccccn2)n1)N1CCOCC1 [Example 65],1.55
3,O=C(CSc1nccc(-c2ccccn2)n1)N1CCCCC1 [Example 66],2.09
4,O=C(CSc1nccc(-c2ccccn2)n1)NCC1CC1 [Example 67],1.83
5,O=C(CSc1nccc(-c2ccccn2)n1)N1CCCC1 [Example 68],1.75
6,O=C(CSc1nccc(-c2ccccn2)n1)NC1CC1 [Example 69],1.56
7,C=CCNC(=O)CSc1nccc(-c2ccccn2)n1 [Example 70],1.65
8,COC(=O)CCCSc1nccc(-c2ccccn2)n1 [Example 76],2.35
9,COC(=O)CSc1nc(-c2ccccn2)c2cc(Cl)ccc2n1 [Example 77],3.46
10,COC(=O)CCSc1nccc(-c2ccccn2)n1 [Example 78],2.13
11,COC(=O)CCCCSc1nccc(-c2ccccn2)n1 [Example 79],2.68
12,CCCOC(=O)C(Sc1nccc(-c2ccccn2)n1)C(C)C (stereo not shown) [Example 80],3.96
13,O=C(CSc1nccc(-c2ccccn2)n1)OCCc1ccccc1 [Example 83],3.37
14,CCOC(=O)CCCOC(=O)CSc1nccc(-c2ccccn2)n1 [Example 84],2.72
15,CCCCCCCCCCOC(=O)CSc1nccc(-c2ccccn2)n1 [Example 85],6.15
16,CCCCCCCCCCCCOC(=O)CSc1nccc(-c2ccccn2)n1 [Example 86],7.22
17,O=C(CSc1nccc(-c2ccccn2)n1)OCCCCOc1ccccc1 [Example 88],3.86
18,CC(C)CCOC(=O)CSc1nccc(-c2ccccn2)n1 [Example 89],3.56
19,O=C(CSc1nccc(-c2ccccn2)n1)OCCCOc1ccc(F)cc1 [Example 91],3.59
20,CC(=O)OCCCCCOC(=O)CSc1nccc(-c2ccccn2)n1 [Example 93],2.82
21,CC(C)(C)OC(=O)CCCOC(=O)CSc1nccc(-c2ccccn2)n1 [Example 94],3.48
